Legend:
[1] = test system: SKBR3 (PI3Kα wild type) cells; assay: CellTiter-Glo 2.0 luminescent cell viability assay, 72 hours, SKBR3 cells; format: cell-based; details: Homo sapiens, SK-BR-3, 72 h, SKBR3 (PI3Kα wild type) cells, CellTiter-Glo, approximately 72 hours; read-out: SKBR3 (WT) Viability IC50
Experimental: (§1) The ability of a compound of Formula (I) to decrease the viability of cells was measured using CellTiter-Glo 2.0 (CTG) Luminescent Cell Viability Assay (#G9241) obtained from Promega (Madison, WI).
To prepare assay plates for viability assays, cells were trypsinized, resuspended in fresh media, and viable cells were counted utilizing trypan blue exclusion.
(§2) Assay day 1, cells were dosed using an Echo Liquid Handler (Beckman Coulter) with compounds at a 10 um starting concentration and serially diluted (1:4) for a total of 10 concentrations. Cells were incubated for approximately 72 hours with the compounds (solubilized in DMSO) at 37° C. After 72 hours of treatment, cell plates were equilibrated to room temperature before adding 15 μl of CTG to each well, plates were then covered in aluminum foil to protect from light, incubated at room temperature for 30 minutes on a microtiter plate shaker, and luminescence readings were collected using a CLARIOstar microplate reader (BMG Labtech, Germany). Percent of vehicle control values were plotted as log (inhibitor) vs. response-Variable slope (four parameters) for curve fitting and IC50 values were determined using XLfit.

[2] = test system: T47D (PI3Kα H1047R mutant) cells; assay: CellTiter-Glo 2.0 luminescent cell viability assay, 72 hours, T47D cells; format: cell-based; details: Homo sapiens, T47D, 72 h, T47D (PI3Kα H1047R mutant) cells, CellTiter-Glo, approximately 72 hours; read-out: T47D (H1047R mutant) Viability IC50
Experimental: This Example illustrates that exemplary compounds of the present invention decrease the viability of cells.
as §1
To prepare assay plates for viability assays, cells were trypsinized, resuspended in fresh media, and viable cells were counted utilizing trypan blue exclusion. T47D, SKBR3, or MKN1 cells were seeded at 1000 cells in 30 μl per well in a solid white flat bottom 384 cell culture plate (Perkin Elmer #6007680) and incubated at 37° C. overnight.
as §2

| Compound | IC50 [1] [µM] | IC50 [2] [µM] |
| --- | --- | --- |
| Cc1cc([C@@H](C)Nc2ccccc2C(=O)O)c2nc(NC34CC(CO)(C3)C4)c(C#N)c(=O)n2c1 [Example 11-282, (R)-2-((1-(3-cyano-2-((3-(hydroxymethyl)bicyclo[1.1.1]pentan-1-yl)amino)-7-methyl-4-oxo-4H-pyrido[1,2-a]pyrimidin-9-yl)ethyl)amino)benzoic acid] | > 10 | 1.65 |
| Cc1cc([C@H](C)Nc2ccccc2)c2nc(N3Cc4ccccc4C3)c(C#N)c(=O)n2c1 [Example 11-300, (S)-2-(isoindolin-2-yl)-7-methyl-4-oxo-9-(1-(phenylamino)ethyl)-4H-pyrido[1,2-a]pyrimidine-3-carbonitrile] | > 10 | 3.71 |
| Cc1cc([C@@H](C)Nc2ccccc2C(=O)O)c2nc(N3CCC4(CCC(F)(F)C4)C3)c(C)c(=O)n2c1 (stereo partly drawn) [Example 11-447, 2-(((1R)-1-(2-(7,7-difluoro-2-azaspiro[4.4]nonan-2-yl)-3,7-dimethyl-4-oxo-4H-pyrido[1,2-a]pyrimidin-9-yl)ethyl)amino)benzoic acid] | > 10 | 0.645 |
| Cc1cc([C@@H](C)Nc2ccccc2C(=O)O)c2nc(N3CC(c4cc(C(F)(F)F)on4)C3)c(C)c(=O)n2c1 [Example 11-442, (R)-2-((1-(3,7-dimethyl-4-oxo-2-(3-(5-(trifluoromethyl)isoxazol-3-yl)azetidin-1-yl)-4H-pyrido[1,2-a]pyrimidin-9-yl)ethyl)amino)benzoic acid] | > 10 | 0.871 |
| C[C@@H](Nc1ccc(Cl)nc1C(=O)O)c1cc(Cl)cn2c(=O)c(C#N)c(N3CCC(F)(F)CC3)nc12 [Example 11-50, (R)-6-chloro-3-((1-(7-chloro-3-cyano-2-(4,4-difluoropiperidin-1-yl)-4-oxo-4H-pyrido[1,2-a]pyrimidin-9-yl)ethyl)amino)picolinic acid] | > 10 | 0.217 |
| Cc1cc(C(C)Nc2ccc(C(=O)O)cc2)c2nc(N3CCCCC3)cc(=O)n2c1 (stereo not drawn) [Example 11-388, 4-((1-(7-methyl-4-oxo-2-(piperidin-1-yl)-4H-pyrido [1,2-a]pyrimidin-9-yl)ethyl)amino)benzoic acid] | > 10 | > 10 |
| Cc1cc([C@@H](C)Nc2ccccc2C(=O)O)c2nc(N3C[C@H]4CC[C@@H]3C4)c(C#N)c(=O)n2c1 [Example 11-294, 2-(((R)-1-(2-((1R,4S)-2-azabicyclo[2.2.1]heptan-2-yl)-3-cyano-7-methyl-4-oxo-4H-pyrido[1,2-a]pyrimidin-9-yl)ethyl)amino)benzoic acid] | > 10 | 0.17 |
| Cc1cc([C@@H](C)Nc2ccccc2C(=O)O)c2nc(N3CCn4ccnc4C3)c(C)c(=O)n2c1 [Example 11-429, (R)-2-((1-(2-(5,6-dihydroimidazo[1,2-a]pyrazin-7(8H)-yl)-3,7-dimethyl-4-oxo-4H-pyrido[1,2-a]pyrimidin-9-yl)ethyl)amino)benzoic acid] | > 10 | 3.14 |
| Cc1cc([C@@H](C)Nc2ccccc2C(=O)O)c2nc(N3CCC(C#N)CC3)c(C)c(=O)n2c1 [Example 11-73, (R)-2-((1-(2-(4-cyanopiperidin-1-yl)-3,7-dimethyl-4-oxo-4H-pyrido[1,2-a]pyrimidin-9-yl)ethyl)amino)benzoic acid] | > 10 | 0.272 |
| Cc1cc([C@@H](C)Nc2ccccc2C(=O)O)c2nc(N3CCN(c4ncc(C#N)cn4)CC3)c(C)c(=O)n2c1 [Example 11-258, (R)-2-((1-(2-(4-(5-cyanopyrimidin-2-yl)piperazin-1-yl)-3,7-dimethyl-4-oxo-4H-pyrido[1,2-a]pyrimidin-9-yl)ethyl)amino)benzoic acid] | > 10 | 0.119 |
| Cc1cc([C@@H](C)Nc2ccccc2C(=O)O)c2nc(N3CCN(c4ccc(C(F)(F)F)cc4C#N)CC3C)c(C#N)c(=O)n2c1 (stereo partly drawn) [Example 11-78, 2-(((1R)-1-(3-cyano-2-(4-(2-cyano-4-(trifluoromethyl)phenyl)-2-methylpiperazin-1-yl)-7-methyl-4-oxo-4H-pyrido[1,2-a]pyrimidin-9-yl)ethyl)amino)benzoic acid] | > 10 | 0.256 |
| Cc1cc([C@@H](C)Nc2ccccc2C(=O)O)c2nc(N3CC(F)C3)c(C)c(=O)n2c1 [Example 11-114, (R)-2-((1-(2-(3-fluoroazetidin-1-yl)-3,7-dimethyl-4-oxo-4H-pyrido[1,2-a]pyrimidin-9-yl)ethyl)amino)benzoic acid] | > 10 | 0.257 |
| Cc1cc([C@@H](C)Nc2ccnnc2)c2nc(N3CCC(F)(F)CC3)c(C#N)c(=O)n2c1 [Example 11-145, (R)-2-(4,4-difluoropiperidin-1-yl)-7-methyl-4-oxo-9-(1-(pyridazin-4-ylamino)ethyl)-4H-pyrido[1,2-a]pyrimidine-3-carbonitrile] | > 10 | > 10 |
| Cc1cc([C@@H](C)Nc2ccncc2C(=O)O)c2nc(N3Cc4ccccc4C3)c(C#N)c(=O)n2c1 [Example 11-274, (R)-4-((1-(3-cyano-2-(isoindolin-2-yl)-7-methyl-4-oxo-4H-pyrido[1,2-a]pyrimidin-9-yl)ethyl)amino)nicotinic acid] | > 10 | > 10 |
| Cc1cc([C@@H](C)Nc2ccccc2C(=O)O)c2nc(N3CC(c4ccccn4)C3)c(C)c(=O)n2c1 [Example 11-16, (R)-2-((1-(3,7-dimethyl-4-oxo-2-(3-(pyridin-2-yl)azetidin-1-yl)-4H-pyrido[1,2-a]pyrimidin-9-yl)ethyl)amino)benzoic acid] | > 10 | 0.389 |
| Cc1cc([C@@H](C)Nc2ccccc2C(=O)O)c2nc(N3Cc4ccc(CO)cc4C3)c(C)c(=O)n2c1 [Example 10-137, (R)-2-((1-(2-(5-(hydroxymethyl)isoindolin-2-yl)-3,7-dimethyl-4-oxo-4H-pyrido[1,2-a]pyrimidin-9-yl)ethyl)amino)benzoic acid] | > 10 | 0.0695 |
| Cc1cc([C@@H](C)Nc2ccccc2C(=O)O)c2nc(N3CCC4(CCC(=O)N4)C3)c(C#N)c(=O)n2c1 (stereo partly drawn) [Example 11-289, 2-(((1R)-1-(3-cyano-7-methyl-4-oxo-2-(2-oxo-1,7-diazaspiro[4.4]nonan-7-yl)-4H-pyrido[1,2-a]pyrimidin-9-yl)ethyl)amino)benzoic acid] | > 10 | 1.87 |
| Cc1cc(C(=O)NC2CCCCC2C(=O)O)c2nc(N3CCCCC3)c(C#N)c(=O)n2c1 (stereo not drawn) [Example 11-315, 2-(3-cyano-7-methyl-4-oxo-2-(piperidin-1-yl)-4H-pyrido[1,2-a]pyrimidine-9-carboxamido)cyclohexane-1-carboxylic acid] | > 10 | > 10 |
| Cc1cc([C@@H](C)Nc2ccccc2C(=O)O)c2nc(O[C@@H]3CCOC3)c(C)c(=O)n2c1 [Example 11-245, 2-(((R)-1-(3,7-dimethyl-4-oxo-2-(((R)-tetrahydrofuran-3-yl)oxy)-4H-pyrido[1,2-a]pyrimidin-9-yl)ethyl)amino)benzoic acid] | > 10 | 0.166 |
| Cc1cc([C@@H](C)Nc2ccccc2C(=O)O)c2nc(N3CC(C#N)C3)c(C#N)c(=O)n2c1 [Example 11-109, (R)-2-((1-(3-cyano-2-(3-cyanoazetidin-1-yl)-7-methyl-4-oxo-4H-pyrido[1,2-a]pyrimidin-9-yl)ethyl)amino)benzoic acid] | > 10 | 1.33 |
| COc1cc2c(cc1OC)CN(c1nc3c([C@@H](C)Nc4ccccc4C(=O)O)cc(C)cn3c(=O)c1C)C2 [Example 10-139, (R)-2-((1-(2-(5,6-dimethoxyisoindolin-2-yl)-3,7-dimethyl-4-oxo-4H-pyrido[1,2-a]pyrimidin-9-yl)ethyl)amino)benzoic acid] | > 10 | 0.0743 |
| Cc1cc(C(C)Nc2ccccc2C(=O)O)c2nc(N3CCCCC3)c(C3CC3)c(=O)n2c1 (stereo not drawn) [Example 11-413, 2-((1-(3-cyclopropyl-7-methyl-4-oxo-2-(piperidin-1-yl)-4H-pyrido[1,2-a]pyrimidin-9-yl)ethyl)amino)benzoic acid] | > 10 | 1.65 |
| Cc1cc([C@@H](C)Nc2ccccc2C(=O)O)c2nc(N3Cc4nccnc4C3)c(C#N)c(=O)n2c1 [Example 11-137, (R)-2-((1-(3-cyano-2-(5,7-dihydro-6H-pyrrolo[3,4-b]pyrazin-6-yl)-7-methyl-4-oxo-4H-pyrido[1,2-a]pyrimidin-9-yl)ethyl)amino)benzoic acid] | > 10 | 0.688 |
| Cc1cc([C@@H](C)Nc2ccccc2C(=O)O)c2nc(N3C[C@H]4C[C@@H]3C(F)(F)C4)c(C)c(=O)n2c1 [Example 11-228, 2-(((R)-1-(2-((1R,4S)-6,6-difluoro-2-azabicyclo[2.2.1]heptan-2-yl)-3,7-dimethyl-4-oxo-4H-pyrido[1,2-a]pyrimidin-9-yl)ethyl)amino)benzoic acid] | > 10 | 0.155 |

— patent US20260078120A1, “SUBSTITUTED PYRIDOPYRIMIDINONES” (MIRATI THERAPEUTICS, INC., priority 2022, published 2026)
